From paper PMC8138579, “Screening of Anti-Lipase Components of Artemisia argyi Leaves Based on Spectrum-Effect Relationships and HPLC-MS/MS” (Frontiers in Pharmacology, 2021) come the findings set out here.

In the assay the target is T1, Porcine pancreatic lipase (type II) (Sus scrofa, UniProt P00591).
T1 construct: gene PNLIP; native commercial porcine pancreas preparation (Sigma-Aldrich, type II), no added colipase stated; human 1LPA used only for docking
T1 sequence (P00591 1-450): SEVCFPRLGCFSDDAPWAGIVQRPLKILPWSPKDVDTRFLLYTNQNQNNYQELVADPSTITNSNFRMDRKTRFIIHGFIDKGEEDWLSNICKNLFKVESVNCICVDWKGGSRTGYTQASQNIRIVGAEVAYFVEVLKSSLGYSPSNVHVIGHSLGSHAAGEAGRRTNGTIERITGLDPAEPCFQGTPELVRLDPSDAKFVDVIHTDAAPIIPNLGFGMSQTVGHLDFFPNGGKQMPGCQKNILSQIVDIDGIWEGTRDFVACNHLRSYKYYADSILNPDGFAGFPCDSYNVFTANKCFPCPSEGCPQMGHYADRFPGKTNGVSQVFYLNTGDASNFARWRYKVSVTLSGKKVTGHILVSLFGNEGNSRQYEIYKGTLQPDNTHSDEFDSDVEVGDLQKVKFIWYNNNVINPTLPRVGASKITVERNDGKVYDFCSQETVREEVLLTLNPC
The experiment in a line: fluorometric lipase assay, 4-methylumbelliferone release. Format: biochemical. From the text: fluorometric lipase assay, 4-methylumbelliferone release on Porcine pancreatic lipase (type II) | IC50 values of neochlorogenic acid, chlorogenic acid, isochlorogenic acid B and isochlorogenic acid A
Consider `O=C(/C=C/c1ccc(O)c(O)c1)O[C@@H]1C[C@@](O)(C(=O)O)C[C@@H](O)[C@@H]1O` [P1, neochlorogenic acid], for which inhibition was half-maximal at 429 µM (IC50).

Compound `O=C(/C=C/c1ccc(O)c(O)c1)O[C@@H]1C[C@](O)(C(=O)O)C[C@@H](O)[C@H]1O` [P3, chlorogenic acid] showed an IC50 of 322 µM.

The compound `O=C(/C=C/c1ccc(O)c(O)c1)O[C@H]1[C@H](O)C[C@](O)(C(=O)O)C[C@H]1OC(=O)/C=C/c1ccc(O)c(O)c1` [P7, isochlorogenic acid B] showed a concentration for half-maximal inhibition (IC50) of 234 µM.

`O=C(/C=C/c1ccc(O)c(O)c1)O[C@@H]1C[C@](O)(C(=O)O)C[C@@H](OC(=O)/C=C/c2ccc(O)c(O)c2)[C@H]1O` [P8, isochlorogenic acid A] had an IC50 of 157 µM.
